Assay results: patent publication US9238626B2 (priority 2012, dated 2016)
Counter-ions that a name gives are not always drawn.

Columns and labels:
Aβ1-42 = Aβ1-42 (Homo sapiens, UniProt P05067); assay: Aβ1-42 self-aggregation inhibition assay (thioflavin T); assay type: biochemical; conditions: inhibitor 10 μM, [Aβ]/[I]=5/1
Description: As reported in a previously published protocol (cf. M. Bartolini et al., “Insight into the Kinetic of Amyloid Beta (1-42) Peptide Self-Aggregation: Elucidation of Inhibitors' Mechanism of Action. ChemBioChem 2007, vol. 8, pp. 2152-2161), HFIP pretreated Aβ1-42 samples (Bachem AG, Switzerland) were solubilized with a CH3CN/0.3 mM Na2CO3250 mM NaOH (48.4:48.4:3.2) mixture to obtain a 500 μM solution. Experiments were performed by incubating the peptide in 10 mM phosphate buffer (pH=8.0) containing 10 mM NaCl, at 30° C. for 24 h (final Aβ concentration 50 μM) with and without inhibitor (10 μM, Aβ/inhibitor=5/1). Blanks containing the tested inhibitors were also prepared and tested.

[1] = target: Electrophorus electricus (ee) AChE (Electrophorus electricus (Electric eel) (Gymnotus electricus), UniProt O42275); assay: AChE inhibition assay (Ellman), eeAChE; assay type: biochemical
Description: AChE inhibitory activity of compounds (Ia)-(Ie) and (−)-(Ib) and (+)-(Ib) was evaluated spectrophotometrically at 25° C. by the method of Ellman et al., using recombinant human AChE (hAChE) and Electrophorus electricus (ee) AChE and acetylthiocholine iodide as substrate (cf. G. L. Ellman et al., “New and Rapid Colorimetric Determination of Acetylcholinesterase Activity” Biochem. Pharmacol. 1961, vol. 7, pp. 88-95). For eeAChE inhibitory activity determination, the reaction took place in a final volume of 300 μL of 0.1 M phosphate-buffered solution pH 8.0, containing 0.03 unit/mL of ee AChE and 333 μM 5,5′-dithiobis(2-nitrobenzoic) acid (DTNB) solution used to produce the yellow anion of 5-thio-2-nitrobenzoic acid. Inhibition curves were performed in duplicates using at least 10 increasing concentrations of inhibitor and preincubating at 37° C. for 20 min. One duplicate sample without inhibitor was always present to yield 100% of AChE activity. Then, substrate acetylthiocholine (450 μM) was added and the reaction was developed at 37° C. for 5 min. The color production was measured at 414 nm.
Results are expressed as mean±S.E.M. of at least 4 experiments performed in duplicate. DTNB, acetylthiocholine, butyrylthiocholine, and enzymes were purchased from Sigma.

[2] = tested on: hippocampal slices incubated with Aβ oligomers; assay: Electrophysiology (LTP) in hippocampal slices incubated with Aβ oligomers; assay type: cell-based, C57bl6 male mice
Description: Hippocampal slices were prepared according to standard procedures previously described. Briefly, transverse slices (350 μm) from the dorsal hippocampus were cut under cold artificial cerebrospinal fluid (ACSF, in mM: 124 NaCl, […], 10 D-glucose, 2.69 KCl, 1.25 KH2PO4 2.5 CaCl2, 1.3 MgSO4, and 2.60 NaHPO4) using a Vibratome (Leica VT 1000 s, Germany) and incubated in ACSF for 1 h at room temperature. In all experiments, 10 μM picrotoxin (PTX) was added to suppress inhibitory GABAA transmission. Slices were transferred to an experimental chamber (2 mL), superfused (3 mL/min, at 20-22° C.) with gassed ACSF and visualized by trans-illumination with a binocular microscope (MSZ-10, Nikon, Melville, N.Y.). To evoke field excitatory postsynaptic potentials (fEPSPs), we stimulate with bipolar concentric electrodes (Platinum/Iridium, 125 μm OD diameter, FHC Inc., Bowdoin, Me.) generated by a stimulator (Axon 700b, Molecular Devices, Sunnyvale, Calif.) and connected to an isolation unit (Isoflex, AMPI, Jerusalem, Israel). The stimulation was in the Stratum Radiatum within 100-200 μm from the recording site. The paired pulse facilitation index was calculated by ((R2−R1)/R1), where R1 and R2 were the peak amplitudes of the first and second fEPSP respectively. To generate LTP we used Theta Burst Stimulation (TBS) consisting of 5 trains of stimulus with an inter-train interval of 20 s. Each train consisted of 10 bursts at 5 Hz and each burst having 4 pulses at 100 Hz. To generate LTD we used Low Frequency Stimulation (LFS) consisting in 900 paired pulses at 1 Hz. […] Evoked postsynaptic responses were analyzed off-line, using an analysis software (pClampfit, Molecular Devices), which allowed visual detection of events, computing only those events that exceeded and arbitrary threshold.
Electrophysiological registers of hippocampal slices of 2-month-old C57bl6 male mice were assessed to evaluate the synaptic transmission through the long-term potentiation (LTP). […] In FIG. 3B, the quantification at min 60 of fEPSP are shown. […]

[3] = tested on: hippocampal slices treated with Aβ oligomers; assay: Synaptic protein levels of hippocampal slices in the presence of Aβ oligomers (western blot); assay type: cell-based, C57bl6 mice; conditions: co-treatment with Aβ oligomers, 1 h
Description: The hippocampus of treated or control transgenic mice were dissected on ice and immediately frozen at −150° C. or processed. Briefly, hippocampal tissue were homogenized in RIPA buffer (50 mM Tris-Cl, pH 7.5, 150 mM NaCl, 1% NP-40, 0.5% sodium deoxycholate, and 1% SDS) supplemented with a protease inhibitor cocktail (Sigma-Aldrich P8340) and phosphatase inhibitors (50 mM NaF, 1 mM Na3VO4 and 30 μM Na4P207) using a Potter homogenizator and then passed sequentially through different caliber syringes. Protein samples were centrifuged at 14000 rpm at 4° C. twice for 10 min. Protein concentration was determined using the BCA Protein Assay Kit (Pierce Biotechnology, Rockford, Ill.). 20 and 40 micrograms of hippocampal samples were resolved by 10% SDS-PAGE, transferred to a PVDF membrane. The reactions were followed by incubation with primary antibodies, secondary antibodies anti-mouse, anti-goat or anti-rabbit IgG peroxidase conjugated (Pierce) and developed using an ECL kit (Western Lightning Plus ECL, Perkin Elmer).
In slices co-treated with (−)-(Ib) (FIG. 4A), the neuroprotective effect of the compound was observed.

APP-PS1 mice [4] = assay: Memory flexibility test (Morris water maze variant) in APP-PS1 mice; assay type: in vivo, mouse
APP-PS1 mice [5] = assay: Senile plaques in APP-PS1 mice (Thioflavin-S staining); assay type: in vivo, mouse
[6] = tested on: human recombinant AChE-induced Aβ1-40 aggregation; assay: AChE-induced Aβ1-40 aggregation inhibition assay (thioflavin T); conditions: inhibitor 100 μM
Description: Aβ1-40, supplied as trifluoroacetate salt, was purchased from Bachem AG (Germany). Aβ1-40 (2 mg mL^−1) was dissolved in HFIP, lyophilized, and then resolubilized in DMSO to get a 2.3 mM Aβ1-40 solution. 1 mM Solutions of tested inhibitors were prepared by dissolution in MeOH.
Aliquots of 2 μL Aβ1-40 peptide were incubated for 24 h at room temperature in 0.215 M sodium phosphate buffer (pH 8.0) at a final concentration of 230 μM. […] The final volume of each vial was 20 μL. Each assay was run in duplicate. To quantify amyloid fibril formation, the thioflavin T fluorescence method was then applied (cf. H. Naiki et al., “Kinetic Analysis of Amyloid Fibril Polymerization in Vitro”, Lab. Invest. 1991, vol. 65, pp. 104-110). The fluorescence intensities due to β-sheet conformation were monitored for 300 s at λem=490 nm (λexc=446 nm). The percent inhibition of the AChE-induced aggregation due to the presence of the tested compound was calculated by the following expression: 100−(IFi/IFo×100) where IFi and IFe are the fluorescence intensities obtained for Aβ plus AChE in the presence and in the absence of inhibitor, respectively, minus the fluorescence intensities due to the respective blanks.

[7] = slices with Aβ oligomers, FIG. 3A
[8] = 7-month-old APP-PS1 mice, FIG. 8
[9] = 11-month-old APP-PS1 mice, FIG. 8B

Sequence of Electrophorus electricus (ee) AChE (O42275 whole entry, looked up): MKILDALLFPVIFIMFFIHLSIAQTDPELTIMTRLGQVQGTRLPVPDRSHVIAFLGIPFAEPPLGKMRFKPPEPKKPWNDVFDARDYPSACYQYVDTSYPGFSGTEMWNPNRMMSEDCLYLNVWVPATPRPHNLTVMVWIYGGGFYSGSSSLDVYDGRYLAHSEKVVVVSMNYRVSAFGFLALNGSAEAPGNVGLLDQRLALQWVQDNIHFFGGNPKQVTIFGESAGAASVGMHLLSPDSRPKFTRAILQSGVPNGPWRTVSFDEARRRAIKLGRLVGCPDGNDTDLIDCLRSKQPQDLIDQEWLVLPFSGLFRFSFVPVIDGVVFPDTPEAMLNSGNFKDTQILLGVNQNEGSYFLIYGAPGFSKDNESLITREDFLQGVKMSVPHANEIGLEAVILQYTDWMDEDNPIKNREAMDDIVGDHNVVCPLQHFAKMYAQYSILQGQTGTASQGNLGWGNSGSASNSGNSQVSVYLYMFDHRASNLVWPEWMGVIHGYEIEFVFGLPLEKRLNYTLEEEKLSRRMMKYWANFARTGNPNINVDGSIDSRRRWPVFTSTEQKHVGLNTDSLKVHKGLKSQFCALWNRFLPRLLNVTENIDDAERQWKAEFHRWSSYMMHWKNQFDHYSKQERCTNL

SMILES	Aβ1-42 self-induced aggregation (%) (Aβ1-42)	IC50 [1] [nM]	fEPSP magnitude response at min 60 ([2]; compared to slices treated with Aβ oligomers, FIG. 3B) [%]	LTP induction [2, 7] [%]	GluA2 protein level [3]	PSD95 protein level [3]	SYN protein level [3]	VGlut1 protein level [3]	synaptophysin (SYP) protein level [3]	number of trials to reach criteria (APP-PS1 mice [4]; 7-month-old APP-PS1 mice, i.p. three times per week for 4 weeks, untreated about 12-13 trials) [trials]	cognitive behavior in memory flexibility test (in words) (APP-PS1 mice [4]; 11-month-old APP-PS1 mice)	Th-S amyloid aggregates, hippocampal region (APP-PS1 mice [5]; [8])	Th-S positive area, cortex (APP-PS1 mice [5]; [8])	Th-S amyloid deposits, cortex (APP-PS1 mice [5]; [9])	Th-S amyloid deposits, hippocampus (APP-PS1 mice [5]; [9])	AChE-induced Aβ1-40 aggregation (%) [6] [%]	LTP induction (in words) [2, 7]	cognitive behavior in memory flexibility test (in words) (APP-PS1 mice [4]; 7-month-old APP-PS1 mice)
CC1=C[C@H]2Cc3nc4cc(Cl)ccc4c(NCCCCCCCCCNC(=O)c4cc(O)c5c(c4)C(=O)c4cccc(O)c4C5=O)c3[C@@H](C1)C2 [(+)-(Ib)•HCl, (+)-(7R,11R)—N-{9-[(3-chloro-6,7,10,11-tetrahydro-9-methyl-7,11-methanocycloocta[b]quinolin-12-yl)amino]nonyl}-9,10-dihydro-4,5-dihydroxy-9,10-dioxoanthracene-2-carboxamide]	38.4 ± 5.5	98.9 ± 14.2	200	200	increased levels of total protein with every concentration used	increased levels of total protein with every concentration used	increased levels of total protein with every concentration used	no changes	no changes	7	took less trials to reach learning criteria	reduction in the amyloid aggregates	significant reduction in the Th-S positive area	reduction in amyloid deposits	reduction in amyloid deposits	36.9 ± 3.4		
CC1=C[C@@H]2Cc3nc4cc(Cl)ccc4c(NCCCCCCCCCNC(=O)c4cc(O)c5c(c4)C(=O)c4cccc(O)c4C5=O)c3[C@H](C1)C2 [(−)-(Ib)•HCl, (−)-(7S,11S)—N-{9-[(3-chloro-6,7,10,11-tetrahydro-9-methyl-7,11-methanocycloocta[b]quinolin-12-yl)amino]nonyl}-9,10-dihydro-4,5-dihydroxy-9,10-dioxoanthracene-2-carboxamide]	43.2 ± 4.7	9.4 ± 1.6			evident effect at 10 and 100 μM	evident effect at 10 and 100 μM		increment for every concentration	no effects were observed		no significant change		significant reduction in the Th-S positive area			38.1 ± 0.7	no LTP induction	improved behavior within days
